# Legend:
# Daphnia magna = conditions: chronic/long-term; duration: 22 days; reproduction
# Rattus norvegicus = conditions: mortality
# Tagia sp. = conditions: acute; duration: 14 days; mortality
# Apis mellifera = conditions: acute, duration: 48 hours, mortality
# Cyprinodon variegatus = conditions: acute; duration: 96 hours; mortality
# Canidae = conditions: chronic; duration: 1 years; oral; Dog Other; histopathology: nonneoplastic
# Pimephales promelas = conditions: chronic/long-term; duration: 33 days; growth
# Neomysis kadiakensis = conditions: acute; duration: 96 hours; mortality
compound,measurement,setting,value
COC(=O)CC(NC(=O)[C@@H](NC(=O)OC(C)C)C(C)C)c1ccc(Cl)cc1 (stereo partly specified) [Valifenalate],NOEC,Daphnia magna,3.2 mg/L
same,LD50,"Rattus norvegicus; acute, oral",> 5000 mg/kg
same,NOAEL,Rattus norvegicus; reproduction developmental,80 mg/kg-day
same,LC50,"Colinus virginianus; acute, oral, diet, mortality",> 1510 mg/kg-day
same,LD50,"Colinus virginianus; acute, oral, mortality",> 2250 mg/kg
same,NOAEL,"Colinus virginianus; reproduction developmental, reproduction",104 mg/kg-day
same,LC50,Tagia sp.,> 1000 mg/kg
same,LD50,Apis mellifera; dermal,> 100 µg/piece
same,LD50,"Apis mellifera; oral, unspecified",> 107 µg/piece
same,LD50,"Anas platyrhynchos; acute, oral, unspecified, mortality",> 2250 mg/kg
same,NOAEL,"Anas platyrhynchos; reproductive, reproduction",167 mg/kg-day
same,LC50,"Anas platyrhynchos; short-term, oral, feed, mortality",> 2650 mg/kg-day
same,LC50,Cyprinodon variegatus,> 15 µg/mL
same,NOAEL,Canidae,7 mg/kg-day
same,NOEC,Pimephales promelas,12 mg/L
same,LC50,Neomysis kadiakensis,2.8 µg/mL

# Reference: EPA's ToxValDB 9.5 (doi:10.2903/j.efsa.2013.3253)
